Measurements from patent US20190183812A1, “Compounds For The Treatment Of Neuromuscular Disorders” (NMD PHARMA A/S, priority 2017, published 2019).

What was measured:
[1] = test system: Lewis rats; experiment: In situ muscle contractile characteristics: isometric hindlimb force under cisatracurium infusion; format: in vivo, rat; conditions: 21.5 mg/kg i.v.; 12 Hz; 3 experiments
Method: Isometric hindlimb force was measured in 12-week old female Lewis rats in the presence and absence of compound.
Rats were placed under anesthesia with isoflurane (2-4%), intubated and subsequently connected to a micro ventilator (Microvent 1, Hallowell EMC, US). Two stimulation electrodes were inserted through the skin to stimulate the sciatic nerve. A small incision was made proximal to the ankle, to expose the Achilles tendon, which was tied by cotton string, and connected to a force transducer (Fort250, World Precision Instruments) with adjustable position (Vernier control). The Achilles tendon was then cut distal to the attached cotton string. […]
Muscle contractile properties were assessed by applying an electrical current (under supramaximal voltage conditions) to the nerve and recording the force generated by the muscle. The muscle was stretched until maximal force was obtained, when assessed by 2 Hz stimulation. Isometric force was measured every 30 seconds at 12 Hz (Twitch), 10 pulses, and at every 5 minutes at 80 Hz (Tetanic) for 1 second (80 pulses). […] The effect of test article was assessed on its ability to increase force generated from the stimulation pattern applied. The effect was assessed in the ability to increase force per se (tetanic, 80 Hz, stimulation), and the ratio between individual twitch peaks (12 Hz stimulation). […]

[2] = target: T1, human CIC-1 channels (Homo sapiens, UniProt P35523); experiment: Automated patch-clamp on human CIC-1 expressed in CHO cells; format: cell-based; conditions: compound added to the intracellular solution vs vehicle control patches; positive shift reflects CIC-1 inhibition
T1 construct: host or cells: CHO (Chinese hamster ovary) cells
T1 sequence (P35523 whole entry): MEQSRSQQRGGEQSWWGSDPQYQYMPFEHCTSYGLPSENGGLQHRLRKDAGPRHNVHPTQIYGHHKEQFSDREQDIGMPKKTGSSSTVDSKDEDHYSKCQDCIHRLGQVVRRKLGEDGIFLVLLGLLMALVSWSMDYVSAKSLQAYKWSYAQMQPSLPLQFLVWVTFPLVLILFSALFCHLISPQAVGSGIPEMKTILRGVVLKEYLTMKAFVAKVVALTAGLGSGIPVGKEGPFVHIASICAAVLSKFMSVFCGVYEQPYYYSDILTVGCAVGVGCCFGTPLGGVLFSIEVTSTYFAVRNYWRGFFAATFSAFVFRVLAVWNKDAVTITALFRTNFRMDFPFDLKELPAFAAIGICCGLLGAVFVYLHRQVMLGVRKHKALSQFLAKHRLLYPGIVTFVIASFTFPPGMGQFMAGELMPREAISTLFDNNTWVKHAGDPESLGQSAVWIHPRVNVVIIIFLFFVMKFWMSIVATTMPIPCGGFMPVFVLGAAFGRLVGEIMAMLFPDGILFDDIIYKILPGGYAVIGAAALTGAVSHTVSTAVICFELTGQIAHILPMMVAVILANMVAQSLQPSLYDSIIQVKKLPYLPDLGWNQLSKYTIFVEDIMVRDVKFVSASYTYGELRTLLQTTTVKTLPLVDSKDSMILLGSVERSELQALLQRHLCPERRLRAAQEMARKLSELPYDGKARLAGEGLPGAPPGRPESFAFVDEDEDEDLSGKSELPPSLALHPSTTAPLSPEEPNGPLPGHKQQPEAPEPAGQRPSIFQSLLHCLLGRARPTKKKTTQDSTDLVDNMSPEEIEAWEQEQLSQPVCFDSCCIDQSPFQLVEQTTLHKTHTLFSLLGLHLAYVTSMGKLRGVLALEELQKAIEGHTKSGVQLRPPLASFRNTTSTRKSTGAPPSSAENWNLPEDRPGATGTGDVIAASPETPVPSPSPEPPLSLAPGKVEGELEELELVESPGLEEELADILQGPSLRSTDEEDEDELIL
Method: The investigatory goal of these experiments was to evaluate how compounds affect the open probability and current amplitude of human CIC-1 channels expressed in CHO cells. Experiments were performed using an automated patch clamp system that allowed high throughput testing of whole cell patches together with both intracellular and extracellular addition of compound.
Automated whole cell patch clamp experiments were performed with the Qpatch 16 system (Sophion Bioscience, Ballerup, Denmark) at room temperature. Data acquisition and analysis were performed in the Qassay software (ver. 5.6, Odense).
To evoke CIC-1 currents in whole cell patches, the membrane potential was initially stepped from a holding potential of −30 mV to +60 mV for 100 ms and then to various test voltages (sweeps) ranging from +120 mV to −140 mV in steps of 20 mV for 300 ms. To obtain tail currents, the membrane potential was stepped to −100 mV after each test voltage for 300 ms and then relaxed to −30 mV for 2 sec between sweeps (FIG. 3). I/V relationships for whole cell instant and steady state current amplitudes were obtained by plotting average current densities at the beginning and at the end of the 300 ms step against the membrane potential (FIG. 4).
In order to determine the relative overall open probability (P0), the instantaneous tail currents were normalized to the maximal tail current obtained following the most positive voltage step and plotted against the test voltage. Plots of normalized tail currents from each whole cell patch were then fitted to a Boltzmann function allowing determination of half activation voltages (V1/2, FIG. 5).
For automated patch clamp experiments extracellular solutions contained: 2 mM CaCl2, 1 mM MgCl2, 10 mM HEPES, 4 mM KCl, 145 mM NaCl, 10 mM Glucose, pH adjusted to 7.4 with NaOH (2 M). Osmolality adjusted to ˜320 using sucrose.
Intracellular solutions contained: 80 mM CsF, 60 mM CsCl, 5/1 mM KOH/EGTA, 10 mM HEPES, 10 mM NaCl, pH adjusted to 7.2 with NaOH (2 M). Osmolality adjusted to ˜320 mOsm using sucrose.
Cells used in patch clamp experiments were Chinese hamster ovary cells (CHO) constitutively expressing human CIC-1 channels. The amino acid sequence encoded by the cDNA used to create this cell line was identical to the translated sequence for GenBank accession number NM_000083.2. Cells were produced by Charles River (Catalogue CT6175, Cleveland Ohio, USA) in a cryopreserved format. Experiments were performed on the cells directly after thawing (3×10^6 cells used in each experiment).
To evaluate the compound effect on CIC-1, when applied directly to the intracellular side of the cell membrane, the half activation voltage, V1/2, was determined from whole cell patches with compound added to the intracellular solution and then compared to V1/2 determined from control cell patches with only vehicle added to the intracellular solution. Additionally, the effect of extracellular added compound was evaluated by determine V1/2 and steady state current amplitudes before and after exchanging the extracellular solution to contain compound.
The difference in half activation voltage of CIC-1 channels, […]V1/2, was determined as the difference between the cell patches treated intracellularly with compound and control cells patches and is reported in Table 4 below. A positive shift in […]V1/2 is reflecting CIC-1 channel inhibition by the tested compound. P-values of <0.05 is considered significant.

[3] = target: T2, CIC-1 ion channels (Rattus norvegicus, UniProt P35524); experiment: Resting membrane conductance (Gm), three-electrode technique, rat muscle: Kd for CIC-1 inhibition; format: cell-based; conditions: concentration that reduced Gm by 50%
T2 construct: from tissue; host or cells: soleus muscle of adult (12-14 week old) Wistar rats
T2 sequence (P35524 1-994): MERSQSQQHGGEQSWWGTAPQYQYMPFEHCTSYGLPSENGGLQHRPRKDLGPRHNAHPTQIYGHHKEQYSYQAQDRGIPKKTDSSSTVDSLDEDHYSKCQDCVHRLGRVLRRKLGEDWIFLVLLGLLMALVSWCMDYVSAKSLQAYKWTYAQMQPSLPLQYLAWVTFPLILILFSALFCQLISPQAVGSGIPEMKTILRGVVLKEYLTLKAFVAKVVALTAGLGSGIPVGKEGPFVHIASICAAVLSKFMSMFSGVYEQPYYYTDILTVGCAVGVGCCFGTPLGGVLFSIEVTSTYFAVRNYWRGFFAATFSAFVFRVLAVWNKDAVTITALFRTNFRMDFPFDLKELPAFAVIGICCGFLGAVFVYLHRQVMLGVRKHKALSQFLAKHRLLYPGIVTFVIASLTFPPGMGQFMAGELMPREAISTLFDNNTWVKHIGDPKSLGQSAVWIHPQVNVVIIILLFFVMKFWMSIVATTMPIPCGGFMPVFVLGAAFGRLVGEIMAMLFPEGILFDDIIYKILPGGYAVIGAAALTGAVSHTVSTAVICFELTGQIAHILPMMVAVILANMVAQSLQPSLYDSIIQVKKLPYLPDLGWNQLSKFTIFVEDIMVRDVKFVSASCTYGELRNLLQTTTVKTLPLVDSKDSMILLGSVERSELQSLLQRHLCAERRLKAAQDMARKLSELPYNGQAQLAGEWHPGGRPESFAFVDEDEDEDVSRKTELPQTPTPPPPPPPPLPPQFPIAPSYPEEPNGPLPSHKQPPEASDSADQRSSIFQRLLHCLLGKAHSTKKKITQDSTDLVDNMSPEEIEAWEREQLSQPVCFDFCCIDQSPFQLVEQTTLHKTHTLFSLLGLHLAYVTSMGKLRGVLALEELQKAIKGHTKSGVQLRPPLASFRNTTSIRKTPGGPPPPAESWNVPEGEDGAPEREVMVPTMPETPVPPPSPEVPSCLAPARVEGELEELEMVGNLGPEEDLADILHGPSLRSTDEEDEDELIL

[4] = test system: isolated rat soleus muscles; experiment: Recovery of nerve-stimulated force in isolated rat soleus muscles exposed to sub-maximal tubocurarine; conditions: Rattus norvegicus, 40 min; read-out: 50 μM % change after addition
Method: Experiments were performed using rat soleus muscles from either young (4-wk-old) or adult Wistar rats (12-14-week-old). Animal handling, killing and isolation of muscle is described elsewhere All experiments were performed using normal Krebs-Ringer bicarbonate solution (NKR). In solutions with elevated Mg^2+, MgCl2 was added to NKR-solution causing minor increases in osmolarity and ionic strength. In solutions with elevated K^+, 4 mM NaCl was replaced by 4 mM KCl in the NKR.
In all contraction experiments, isometric force production was determined and force produced during contractions was quantified by measuring the integral of the force response (AUC). Stimulation and force recordings have been described elsewhere. […] In these latter experiments, extracellular recordings of action potentials (M-waves) could be measured without temporal overlap with stimulation artefacts.
The aim was to find compounds that by inhibition of CIC-1 channels can recover nerve-stimulated force under conditions of fatigue including conditions where fatigue is caused by compromised neuromuscular transmission. Neuromuscular transmission dysfunction can develop because of both pre- and/or post-synaptic complications in connection with a disorder or as part of neuromuscular blockade during/after surgery. In the initial series of drug testing, experiments were performed with isolated muscles in the presence of sub-maximal ACh receptor antagonist tubocurarine. Since the inclusion of tubocurarine caused a partial loss of neuromuscular transmission this experiment mimics the conditions in myasthenia gravis and neuromuscular blockade. To mimic conditions with pre-synaptic complication (Lambert Eaton syndrome, motor neuron disorder, polyneuropathy) the intact nerve-muscle preparations were incubated at elevated extracellular Mg^2+, which is known to suppress release of ACh from nerve terminals of motor neurons.
To identify CIC-1 inhibitors that could be used for treatment of neuromuscular disorders we repeated the experiment shown in FIG. 2A but instead of adding 9-AC we added the compounds of interest in different concentrations within the range from 10 to 500 μM. […] For comparison with the muscle only exposed to tubocurarine (grey trace), the two traces have been overlaid. […] For comparison, muscles only exposed to tubocurarine have been included. The dotted line indicates the recovery of force with C8 when compared to the force production before its addition. This value was used in Table 1 for evaluation of the efficacy of the different compounds in recovering force.

SMILES	change in twitch peaks [1]	ΔV½ [2] [mV]	Kd [3] [µM]	activation at 50 µM [4] [%]
C[C@H](Oc1ccc(Br)cc1C1CC1)C(=O)O [Compound A-2, (2S)-2-(4-bromo-2-cyclopropylphenoxy)propanoic acid]	no significant change	9.2	–	–
CC(C)[C@H](Oc1ccc(Br)cc1)C(=O)O [Compound C22, (2S)-2-(4-bromophenoxy)-3methylbutanoic acid]	–	–	4.1	16
